Measurements: patent US20240018132A1, “5-HYDROXY-1,4-NAPHTHALENEDIONE FOR USE IN THE TREATMENT OF CANCER” (GODAVARI BIOREFINERIES LIMITED, priority 2020, published 2024)

Columns and labels:
[1] = tested on: MDAMB231; test: In vitro antiproliferative assay (MTT assay), breast cancer cell line; type: cell-based; details: Homo sapiens, MDA-MB-231, 48 h, MTT assay, breast cancer MDAMB231, 48 hrs drug incubation
Outline: (§1)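 Cells were seeded at standardized plating densities, allowed 24 h at 37 °C in 5% CO2, then exposed to compounds (from 0.1M DMSO stock) for 48 h. MTT (0.5 mg/ml) was added for 4 h, formazan dissolved in DMSO, and log % viability plotted against log drug concentration.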

[2] = tested on: PC3; test: In vitro antiproliferative assay (MTT assay), prostate cancer cell line; type: cell-based; details: Homo sapiens, PC-3, 48 h, MTT assay, prostate cancer PC3, 48 hrs drug incubation
Outline: as §1

[3] = tested on: MDAMB231; test: Soft agar colony-formation assay, breast cancer; type: cell-based; details: for anticancer activity in comparison with cisplatin, soft agar, breast cancer cell line: FIG. 51, MDAMB231; for IC50: Homo sapiens, MDA-MB-231, 168 h, Soft Agar Assay, 1 week, Alamar Blue
Outline: (§2)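 Cells were plated in soft agar with drug over an agar base layer and grown 1 week at 37 °C/5% CO2, with feeding on day 3. Colonies were quantified with Alamar Blue (24 h, 37 °C) by absorbance at 630 nm. Log % viability was plotted against log drug concentration.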

[4] = tested on: PC3; test: Soft agar colony-formation assay, prostate cancer; type: cell-based; details: for anticancer activity in comparison with cisplatin, soft agar, prostate cancer cell line: FIG. 52, PC3; for IC50: Homo sapiens, PC-3, 168 h, Soft Agar Assay, 1 week, Alamar Blue
Outline: as §2

[5] = tested on: Human lymphocytes; test: Lymphocyte assay (MTT on normal cells); type: cell-based; details: human peripheral blood lymphocytes, MTT procedure; for IC50: Lymphocyte
Outline: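 Lymphocytes from human peripheral blood isolated by density-gradient centrifugation on HiSep LSM 1077, washed in D.P.B.S; only cells with purity and viability above 95% used. Seeded at 0.7 million/ml and assessed by MTT.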

[6] = tested on: MDAMB231; test: Wound Healing Assay (WHA), breast cancer cell line; type: cell-based; details: IC10 conc. of compound
Description: (§3) Wound Healing Assay (WHA) determines the ability of cancer stem cells to heal the wound formed in a confluent monolayer.
(§4) Procedure: 0.35×10^6 cells were plated in each well of 6 Tissue Culture well plates. The plate was incubated for 48 hrs at 37° C., 5% CO2. […] IC10 conc. of the respective compound was added into each well. The plates were incubated at 37° C., 5% CO2 and the width of scratch was measured at various time intervals such as 6, 24 and 48 hours. Average of 3 distances were taken for each time point using IS camera Measure. A plot of average width of scratch in micrometer was plotted against the time interval after treatment.

[7] = tested on: PC3; test: Wound Healing Assay (WHA), prostate cancer cell line; type: cell-based; details: IC10 conc. of compound
Description: as §3, §4

[8] = tested on: MDAMB231; test: In vitro sphere-forming assay (cancer stem cells), Mammosphere media; details: for 3D sphere count of MDAMB231: Mammosphere media, 2000 cells/well, n = 6 ± S.D
[9] = tested on: PC3; test: In vitro sphere-forming assay (cancer stem cells), Prostosphere media; details: for 3D sphere count of PC3: Prostosphere media, 2000 cells/well, n = 6 ± S.D
Description: In Vitro Sphere-forming Assay: Sphere assay measures the ability of cancer stem cells (CSCs) to form spheres in specially designed serum-free medium.
Prostosphere Media Preparation (For 100 mL):1 g methyl cellulose autoclaved with magnetic stirrer, 100 mL plain media (Prostate Epithelial Basal Medium) was added and dissolved, under magnetic stirring. After complete dissolution, Insulin-40 μL, B27-2 mL, EGF-80 μL, Penstrep-1 ml was added.
Procedure—The cells were trypsinised and made into single-cell suspension by passing through cell strainers (100 μl and 40 μl, respectively), The cells were diluted at a concentration of 2000 cells/100 μL and suspended in either Mammosphere (for breast cell lines) or Prostosphere (for prostate cell lines). 100 μL of this suspension was added into each well of 96-well suspension plates and incubated at 37° C., 5% CO2 for 24 hrs. Appropriate concentrations of the drugs (2 μL) were added into respective wells with 100 μL of stem cell culture medium. Plates were incubated at 37° C., 50 CO2 for 72 hrs. After incubation, 2.5 μL of the respective drug concentration and 50 μL of stem cell culture medium were added into each well and the plates were further incubated at 37° C., 50% CO2 for 72 hrs. 3 μL of the respective drug concentration was added with 50 μL of stem cell culture medium again after incubation and plates were reincubated for 72 hrs at 37° C., 50 CO2. Number of primary spheres formed for each concentration were counted. The spheres were converted to 0 viability of spheres compared to untreated (Growth Control with DMSO, GCD).

[10] = Homo sapiens, MDA-MB-231, read-out: % Viability of spheres (MDAMB231)
[11] = Homo sapiens, PC-3, read-out: % Viability of spheres (PC3)

Row | SMILES | IC50 [1] | IC50 [2] | anticancer activity in comparison with cisplatin, soft agar, breast cancer cell line [3] | IC50 [3] | anticancer activity in comparison with cisplatin, soft agar, prostate cancer cell line [4] | IC50 [4] | % inhibition of Wound Healing for Breast Cancer Cell line (MDAMB231) after 48 hrs [6] | % inhibition of Wound Healing for Prostate Cancer Cell line (PC3) after 48 hrs [7] | viability at 0.025 µM [8, 10] | viability at 0.25 µM [8, 10] | viability at 2.5 µM [8, 10] | viability at 25 µM [8, 10] | 3D sphere count of MDAMB231 ([8]; drug 0.025 uM) | 3D sphere count of MDAMB231 ([8]; drug 0.25 uM) | 3D sphere count of MDAMB231 ([8]; drug 2.5 uM) | 3D sphere count of MDAMB231 ([8]; drug 25 uM) | viability at 0.025 µM [9, 11] | viability at 0.25 µM [9, 11] | viability at 2.5 µM [9, 11] | viability at 25 µM [9, 11] | further results
1 | O=C1C(c2ccc3c(c2)OCO3)=CC(=O)c2c(OCCCCN3CCOCC3)cccc21 [Formula 2, 5-(4-morpholinobutoxy)-2-(benzo[d][1,3]dioxol-6-yl)naphthalene-1,4-dione] | 0.566 µM | 0.344 µM | higher anticancer activity in comparison with cisplatin | 2.08 µM | higher anticancer activity in comparison with cisplatin | 2.65 µM | 53.69% | 45.25% | 84% | 66% | 46% | 30% | 65(±5) | 51(±3) | 36(±3) | 23(±3) | 77% | 65% | 39% | 21% | IC50 [5]: 11.5 µM; viability at 250 µM [8, 10]: 14%; 3D sphere count of MDAMB231 ([8]; drug 250 uM): 11(±3); viability at 250 µM [9, 11]: 10%; 3D sphere count of PC3 ([9]; drug 0.025 uM): 63(±4); 3D sphere count of PC3 ([9]; drug 0.25 uM): 53(±3); 3D sphere count of PC3 ([9]; drug 2.5 uM): 32(±4); 3D sphere count of PC3 ([9]; drug 25 uM): 17(±3); 3D sphere count of PC3 ([9]; drug 250 uM): 8(±2)
2 | COc1ccc(NC2=CC(=O)c3c(OCCN4CCOCC4)cccc3C2=O)cc1OC [Formula 40, 5-(2-morpholinoethoxy)-2-(3,4-dimethoxyphenylamino) naphthalene-1,4-dione] | 0.951 µM | 1.68 µM | higher anticancer activity in comparison with cisplatin | 0.353 µM | higher anticancer activity in comparison with cisplatin | 0.422 µM | 45.84% | 48.56% | 56% | 41 ± 4% | 27% | 10% | 43(±3) | 32(±4) | 21(±3) | 8(±2) | 65% | 47% | 34% | 17% | IC50 [5]: 13.2 µM; viability at 0.0025 µM [8, 10]: 78%; 3D sphere count of MDAMB231 ([8]; drug 0.0025 uM): 60(±3); viability at 0.0025 µM [9, 11]: 80%; 3D sphere count of PC3 ([9]; drug 0.0025 uM): 70(±5); 3D sphere count of PC3 ([9]; drug 0.025 uM): 57(±3); 3D sphere count of PC3 ([9]; drug 0.25 uM): 41(±3); 3D sphere count of PC3 ([9]; drug 2.5 uM): 30(±3); 3D sphere count of PC3 ([9]; drug 25 uM): 15(±3)
3 | O=C1C(NC2CCCCC2)=CC(=O)c2c(OCCN3CCOCC3)cccc21 [Formula 52] | 3.13 µM | 4.32 µM | higher anticancer activity in comparison with cisplatin | 3.88 µM | higher anticancer activity in comparison with cisplatin | 3.27 µM | 37.42% | 34.7% | 50% | 45% | 38% | 26% | 55(±7) | 43(±3) | 34(±4) | 24(±3) | 77% | 62% | 49% | 30% | Activity on Lymphocytes (IC50) [5]: No activity; viability at 0.0025 µM [8, 10]: 62%; 3D sphere count of MDAMB231 ([8]; drug 0.0025 uM): 69(±3); viability at 0.0025 µM [9, 11]: 87%; 3D sphere count of PC3 ([9]; drug 0.0025 uM): 71(±3); 3D sphere count of PC3 ([9]; drug 0.025 uM): 63(±4); 3D sphere count of PC3 ([9]; drug 0.25 uM): 51(±3); 3D sphere count of PC3 ([9]; drug 2.5 uM): 40(±4); 3D sphere count of PC3 ([9]; drug 25 uM): 25(±3)
